Data as given in US7276631B2, “Cyclopentylamine and cyclohexylamine derivatives as NK-1/SSRI antagonists” (Bristol-Myers Squibb Company, priority 2004, dated 2007).

Assays:
[1] = biological target: T1, neurokinin-1 (NK-1) receptor (Homo sapiens, UniProt P25103); test: NK-1 binding (competition with [125I] Substance P, U373 cell membranes); conditions: [125I] Substance P displacement
T1 construct: a human glioblastoma-astrocytoma cell line that endogenously express the neurokinin-1 (NK-1) receptor; endogenous in cells; host or cells: U373 human glioblastoma-astrocytoma cells (membranes)
T1 sequence (P25103 whole entry): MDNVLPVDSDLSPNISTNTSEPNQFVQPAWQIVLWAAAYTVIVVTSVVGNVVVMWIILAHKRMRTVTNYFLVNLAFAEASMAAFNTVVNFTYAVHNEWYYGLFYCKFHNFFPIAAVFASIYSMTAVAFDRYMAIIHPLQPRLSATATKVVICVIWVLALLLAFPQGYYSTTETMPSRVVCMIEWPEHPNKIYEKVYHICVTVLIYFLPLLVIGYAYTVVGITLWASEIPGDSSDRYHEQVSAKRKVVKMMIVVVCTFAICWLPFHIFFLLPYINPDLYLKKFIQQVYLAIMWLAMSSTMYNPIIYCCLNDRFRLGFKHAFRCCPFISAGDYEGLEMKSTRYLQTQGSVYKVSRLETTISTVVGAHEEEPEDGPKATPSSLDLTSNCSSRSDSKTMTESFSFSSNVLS
Procedure: U373 cells, a human glioblastoma-astrocytoma cell line that endogenously express the neurokinin-1 (NK-1) receptor, were grown in a monolayer culture at 37° C. in 5% CO2 and fed with Minimum Essential Medium (MEM) supplemented with 10% fetal bovine serum. Membranes were prepared as follows: Cells were washed twice with ice-cold phosphate-buffered saline (pH 7.4) and then incubated for 5 to 10 minutes with ice-cold 10 mM Tris buffer (pH 7.4) containing 5 mM EDTA. Cells were removed from plates, homogenized, and centrifuged at 32,000×g for 20 minutes. The resulting supernatant was discarded, and the pellet resuspended by homogenization in 50 mM Tris buffer (pH 7.4) containing 1 mM EDTA and centrifuged at 32,000×g for 20 minutes. The resulting supernatant was discarded, and the pellet resuspended by homogenization in NK-1 binding assay buffer (50 mM Tris-HCL (pH 7.4), 3 mM MnCl2, 200 μg/ml BSA, 5 μg/ml chymostatin, 40 μg/ml bacitracin and 4 μg/ml leupeptin).
On the day of an experiment the membrane preparation was thawed, homogenized and diluted with NK-1 binding assay buffer to the appropriate concentration. Competition binding assays were performed in 96 well plate format by incubating membranes (5-10 ug/well) with Bolton Hunter labeled [^125I] Substance P, at a concentration of […], and concentrations of drugs ranging from 10000 to 0.01 nM. Samples were incubated for 30 min at 20° C. then filtered through GF/B glass fiber filters (pretreated with 1% polyethyleneimine and 0.3% Triton X-100) using a Brandel cell harvester. The filters were then washed with 10 ml ice cold 50 mM Tris-HCL (pH 7.4) containing 3 mM MgCl2. Non-specific was defined in the presence of 2 μM L-733,060 (a non-peptide NK-1 antagonist). Amount of radioligand bound in the presence and absence of competitor was analyzed by plotting (−)log drug concentration versus the amount of radioligand specifically bound. The midpoint of the displacement curve (IC50, nM), signifies the potency. Ki values were calculated using the method of Cheng and Prusoff [Cheng, Y.-C. and Prusoff, W. H., Biochemical Pharmacology, Vol. 22, pp. 3099-3108, Pergamon Press (1973)].

[2] = biological target: T2, human serotonin transporters (Homo sapiens, UniProt P31645); test: Serotonin transporter binding assay ([3H]-citalopram, HEK-hSERT cell membranes); conditions: [3H]-citalopram displacement, read-out: SERT IC50
T2 construct: expressed in transfected cells; host or cells: HEK-293 cells stably expressing hSERT (membranes)
T2 sequence (P31645 whole entry): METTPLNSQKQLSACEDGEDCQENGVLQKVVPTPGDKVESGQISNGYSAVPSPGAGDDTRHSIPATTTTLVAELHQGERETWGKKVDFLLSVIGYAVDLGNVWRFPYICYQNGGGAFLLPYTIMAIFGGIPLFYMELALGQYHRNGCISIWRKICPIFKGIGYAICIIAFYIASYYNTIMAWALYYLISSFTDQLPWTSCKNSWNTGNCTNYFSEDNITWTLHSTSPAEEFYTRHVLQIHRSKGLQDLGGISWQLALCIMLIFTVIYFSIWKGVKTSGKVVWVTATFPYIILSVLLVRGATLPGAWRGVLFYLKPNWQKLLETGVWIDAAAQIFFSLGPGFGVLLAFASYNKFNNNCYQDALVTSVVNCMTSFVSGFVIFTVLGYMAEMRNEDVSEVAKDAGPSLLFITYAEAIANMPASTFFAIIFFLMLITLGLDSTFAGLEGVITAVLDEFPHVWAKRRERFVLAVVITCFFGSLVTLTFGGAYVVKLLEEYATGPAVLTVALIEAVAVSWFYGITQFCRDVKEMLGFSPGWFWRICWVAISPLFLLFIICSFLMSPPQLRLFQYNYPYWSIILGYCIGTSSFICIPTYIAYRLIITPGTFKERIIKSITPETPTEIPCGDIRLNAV
Procedure: HEK-293 cells that stably express human serotonin transporters (HEK-hSERT cells) were grown at 37° C. in 5% CO2 as a monolayer in medium consisting of EMEM supplemented with 10% fetal bovine serum and G418 sulfate (500 μg/ml). To prepare membranes for radioligand binding experiments, cells were rinsed twice with phosphate-buffered saline (138 mM NaCl, 4.1 mM KCl, 5.1 mM Na2PO4, 1.5 mM […], 11.1 mM glucose, pH 7.4). Cells were transferred from plates to polypropylene tubes (16×100 mm), centrifuged at 1,200×g for 5 min and were frozen at −80° C. until assay. Following centrifugation, pellets were resuspended by homogenization in buffer consisting of 50 mM Tris (pH 7.7 at 25° C.), 120 mM NaCl and 5 mM KCl and then centrifuged at 32,000×g for 10 min. Following centrifugation, supernatants were discarded and pellets were resuspended in buffer consisting of 50 mM Tris (pH 7.4 at 25° C.), 150 mM NaCl and 5 mM KCl. Membrane homogenates (200 μl/plate) were incubated with 1 nM [^3H]-citalopram (specific activity=85 Ci/mmol) and increasing concentrations of test compounds for 1 hr at 25° C. in a total volume of 250 μl. The assay buffer consisted of 50 mM Tris (pH 7.4 at 25° C.), 120 mM NaCl and 5 mM KCl (pH 7.4 with conc. HCl). Plates were incubated for 1 hr at 25° C., then filtered through 0.5% PEI treated Whatman GF/B filters using a Brandel cell harvester. Filters were washed three times with 3 ml of ice-cold tris wash buffer. Non-specific binding was defined with 10 μM fluoxetine. Amount of radioligand bound in the presence and absence of competitor was analyzed by plotting (−)log drug concentration versus the amount of radioligand specifically bound. The midpoint of the displacement curve (IC50, nM), signifies the potency. Ki values were calculated using the method of Cheng and Prusoff [Cheng, Y.-C. and Prusoff, W. H., Biochemical Pharmacology, Vol. 22, pp. 3099-3108, Pergamon Press (1973)].

Row | IC50 [1] [nM] | IC50 [2] [nM] | SMILES
1 | < 20 | – | FC(F)(F)c1cc(COCC2(c3ccccc3)CCC(N3CCCCC3)C2)cc(C(F)(F)F)c1 (stereo not drawn) [Example 1, 1-(3-((3,5-Bis(trifluoromethyl)benzyloxy)methyl)-3-phenylcyclopentyl)piperidine]
2 | < 20 | – | FC(F)(F)c1cc(COCC2(c3ccccc3)CCC(N3CCCC3)C2)cc(C(F)(F)F)c1 (stereo not drawn) [Example 2, 1-(3-((3,5-Bis(trifluoromethyl)benzyloxy)methyl)-3-phenylcyclopentyl)pyrrolidine]
3 | 20 to 100 | – | FC(F)(F)c1cc(COCC2(c3ccccc3)CCC(N3CCOCC3)C2)cc(C(F)(F)F)c1 (stereo not drawn) [Example 3, 4-(3-((3,5-bis(trifluoromethyl)benzyloxy)methyl)-3-phenylcyclopentyl)morpholine]
4 | < 20 | – | FC(F)(F)c1cc(COCC2(c3ccccc3)CCC(NC3CC3)C2)cc(C(F)(F)F)c1 (stereo not drawn) [Example 4, 3-((3,5-Bis(trifluoromethyl)benzyloxy)methyl)-N-cyclopropyl-3-phenylcyclopentanamine]
5 | < 20 | – | COCCN(C)C1CCC(COCc2cc(C(F)(F)F)cc(C(F)(F)F)c2)(c2ccccc2)C1 (stereo not drawn) [Example 5, 3-((3,5-bis(trifluoromethyl)benzyloxy)methyl)-N-(2-methoxyethyl)-N-methyl-3-phenylcyclopentanamine]
6 | < 20 | 20 to 100 | CN(C)C1CCC(COCc2cc(C(F)(F)F)cc(C(F)(F)F)c2)(c2ccccc2)C1 (stereo not drawn) [Example 6, 3-((3,5-bis(trifluoromethyl)benzyloxy)methyl)-N,N-dimethyl-3-phenylcyclopentanamine]
7 | < 20 | 20 to 100 | N[C@H]1CC[C@](COCc2cc(C(F)(F)F)cc(C(F)(F)F)c2)(c2ccccc2)C1 [Example 7, (1S,3R)-3-((3,5-bis(trifluoromethyl)benzyloxy)methyl)-3-phenylcyclopentanamine]
8 | < 20 | 100 to 300 | N[C@@H]1CC[C@@](COCc2cc(C(F)(F)F)cc(C(F)(F)F)c2)(c2ccccc2)C1 [Example 8, (1R,3S)-3-((3,5-bis(trifluoromethyl)benzyloxy)methyl)-3-phenylcyclopentanamine]
9 | < 20 | 20 to 100 | N[C@@H]1CC[C@](COCc2cc(C(F)(F)F)cc(C(F)(F)F)c2)(c2ccccc2)C1 [Example 9, (1R,3R)-3-((3,5-bis(trifluoromethyl)benzyloxy)methyl)-3-phenylcyclopentanamine]
10 | < 20 | < 20 | N[C@H]1CC[C@@](COCc2cc(C(F)(F)F)cc(C(F)(F)F)c2)(c2ccccc2)C1 [Example 10, (1S,3S)-3-((3,5-bis(trifluoromethyl)benzyloxy)methyl)-3-phenylcyclopentanamine]
11 | < 20 | 100 to 300 | CNC1CCCC(COCc2cc(C(F)(F)F)cc(C(F)(F)F)c2)(c2ccccc2)C1 (stereo not drawn) [Example 11, 3-((3,5-bis(trifluoromethyl)benzyloxy)methyl)-N-methyl-3-phenylcyclohexanamine]
12 | 100 to 300 | – | CN(C)C1CCCC(COCc2cc(C(F)(F)F)cc(C(F)(F)F)c2)(c2ccccc2)C1 (stereo not drawn) [Example 12, 3-((3,5-bis(trifluoromethyl)benzyloxy)methyl)-N,N-dimethyl-3-phenylcyclohexanamine]
13 | 20 to 100 | 100 to 300 | CCN(CC)C1CCCC(COCc2cc(C(F)(F)F)cc(C(F)(F)F)c2)(c2ccccc2)C1 (stereo not drawn) [Example 13, 3-((3,5-bis(trifluoromethyl)benzyloxy)methyl)-N,N-diethyl-3-phenylcyclohexanamine]
14 | < 20 | 100 to 300 | CCNC1CCCC(COCc2cc(C(F)(F)F)cc(C(F)(F)F)c2)(c2ccccc2)C1 (stereo not drawn) [Example 14, 3-((3,5-bis(trifluoromethyl)benzyloxy)methyl)-N-ethyl-3-phenylcyclohexanamine]
15 | 20 to 100 | – | FC(F)(F)c1cc(COCC2(c3ccccc3)CCCC(NC3CC3)C2)cc(C(F)(F)F)c1 (stereo not drawn) [Example 15, 3-((3,5-bis(trifluoromethyl)benzyloxy)methyl)-N-cyclopropyl-3-phenylcyclohexanamine]
16 | 100 to 300 | – | FC(F)(F)c1cc(COCC2(c3ccccc3)CCCC(N3CCOCC3)C2)cc(C(F)(F)F)c1 (stereo not drawn) [Example 16, 4-(3-((3,5-bis(trifluoromethyl)benzyloxy)methyl)-3-phenylcyclohexyl)morpholine]
17 | 100 to 300 | – | FC(F)(F)c1cc(COCC2(c3ccccc3)CCCC(N3CCCC3)C2)cc(C(F)(F)F)c1 (stereo not drawn) [Example 17, 1-(3-((3,5-bis(trifluoromethyl)benzyloxy)methyl)-3-phenylcyclohexyl)pyrrolidine]
18 | 20 to 100 | – | FC(F)(F)c1cc(COCC2(c3ccccc3)CCCC(N3CCCCC3)C2)cc(C(F)(F)F)c1 (stereo not drawn) [Example 18, 1-(3-((3,5-bis(trifluoromethyl)benzyloxy)methyl)-3-phenylcyclohexyl)piperidine]
19 | 100 to 300 | – | CN1CCN(C2CCCC(COCc3cc(C(F)(F)F)cc(C(F)(F)F)c3)(c3ccccc3)C2)CC1 (stereo not drawn) [Example 19, 1-(3-((3,5-bis(trifluoromethyl)benzyloxy)methyl)-3-phenylcyclohexyl)-4-methylpiperazine]
